Assay: Inhibition of rat intestinal maltase

Structure (SMILES) | IC50 [µM]
O[C@H]1[C@H]2[C@H](O)[C@H](O)CN2[C@H](O)C[C@H]1O [uniflorine B] | 4
O[C@H]1[C@H](O)[C@@H](O)CN2C[C@@H](O)[C@@H](O)[C@H]12 [(-)-uniflorine A] | 12
